According to US20220170930A1, “METHOD FOR SCREENING COMPOUND FOR TREATING OR PREVENTING POLYQ-RELATED NEURODEGENERATIVE DISEASES” (FUDAN UNIVERSITY, priority 2019, published 2022):

What was measured:
[1] = target: T1, flHTT-Q73 (Homo sapiens, UniProt P42858, INS38QQQQQQQQQQQQQQQQQQQQQQQQQQQQQQQQQQQQQQQQQQQQQQQQQQQQ); experiment: MST affinity with flHTT-Q73; format: binding; conditions: MST, flHTT-Q73, protein 500 nM; read-out: Kd
T1 construct: LC3B, full-length mHTT (flHTT-Q73) and full-length HTT-Q23 (flHTT-Q23); protein A (N, cleaved yes); made in house; host or cells: human embryonic kidney E293 cells

[2] = target: T2, LC3B (Homo sapiens, UniProt Q9GZQ8); experiment: MST affinity with LC3B; format: binding; conditions: MST, LC3B, protein 500 nM; read-out: Kd
T2 construct: His8 (N, cleaved yes); GST (from pGEX-6P1) (N, cleaved yes); made in house; host or cells: E. coli BL21(DE3)pLsyS

[3] = target: T3, binding between HTTexon1-Q72-MBP and LC3B (Homo sapiens, UniProt P42858+Q9GZQ8, INS38QQQQQQQQQQQQQQQQQQQQQQQQQQQQQQQQQQQQQQQQQQQQQQQQQQQ); experiment: In vitro pull-down HTTexon1-Q72-MBP and LC3B; format: biochemical; conditions: 1 μM compound 1 or 100 nM compound 4
T3 construct: His8 (N, cleaved yes); GST (from pGEX-6P1) (N, cleaved yes); made in house; LC3B: E. coli BL21(DE3)pLsyS
Method: Incubation was conducted. Then the unbound proteins were removed.
(3) The resin-bound proteins were eluted and analyzed by SDS-PAGE and Western-blots with anti-LC3 antibody (FIG. 22a).

[4] = target: Q72-GFP; experiment: OI-RD affinity reaction parameters with Q72-GFP; format: binding
Excerpt: (§1) (1) PolyQ-GFP cDNA sequence (expressing Met-polyQ-GFP, wherein polyQ was Q72 or Q25) was synthesized de novo and subcloned into pcDNA vector. […] And the same method was used to obtain cells expressing Q53-GFP, cells expressing Q46-GFP, and cells expressing Q38-GFP.

[5] = target: Q38-GFP; experiment: OI-RD affinity reaction parameters with Q38-GFP; format: binding
Excerpt: as §1

[6] = tested on: GFP; experiment: OI-RD affinity screening with GFP; format: binding; conditions: OI-RD difference images
Method: (§2) To identify compound(s) that can selectively bind to proteins containing expanded polyglutamine, screening was conducted using a method similar to 1.1, except for that the target protein HTTexon1-Q72-MBP in step (1) of 1.1 was replaced with the polyQ-GFP protein prepared in 10.1, and the target protein HTTexon1-Q25-MBP in step (2) of 1.1 was replaced with GFP.

[7] = tested on: proteins with expanded polyglutamine (polyQ-GFP); experiment: OI-RD affinity screening with polyQ-GFP proteins; format: binding; conditions: OI-RD difference images
Method: as §2

[8] = tested on: polyQ-GFP (Q72-GFP, Q25-GFP); experiment: polyQ-GFP level in HEK293T cells by Incucyte fluorescence counting; format: cell-based; conditions: Q72-GFP vs Q25-GFP expressing HEK293T cells, 100 nM compound 1, 100 nM compound 3 or 50 nM compound 4, 2 days
Excerpt: (1) PolyQ-GFP cDNA sequence (expressing Met-polyQ-GFP, wherein polyQ was Q72 or Q25) was synthesized de novo and subcloned into pcDNA vector. It was transfected into HEK293T cells (ATCC, CRL-3216) through forward transfection to obtain Q72-GFP expressing cells and Q25-GFP expressing cells, respectively. And the same method was used to obtain cells expressing Q53-GFP, cells expressing Q46-GFP, and cells expressing Q38-GFP.
The Q72-GFP expressing cells and Q25-GFP expressing cells obtained in step (1) of 10.1 were used. […] Then the level of polyQ-GFP was measured by Incucyte fluorescence counting (FIG. 25).

[9] = target: T4, MBP-ATXN3-Q28 (Homo sapiens, UniProt P54252, INS305QQQQQQQQQQQQQQQQQQ); experiment: OI-RD affinity screening with MBP-ATXN3-Q28; format: binding; conditions: OI-RD difference images
T4 construct: His8 with TEV protease cleavage site; made in house; host or cells: Escherichia coli Rosetta(DE3)pLsyS
Method: (§3) Screening was conducted using a method similar to 1.1, except for that the target protein HTTexon1-Q72-MBP in step (1) of 1.1 was replaced with MBP-ATXN3-Q68 and the target protein HTTexon1-Q25-MBP in step (2) of 1.1 was replaced with MBP-ATXN3-Q28, to obtain compounds that can selectively bind to ATXN3 with abnormally expanded polyQ (MBP-ATXN3-Q68).

[10] = target: T5, mutant ATXN3 protein (ATXN3-Q74) (Homo sapiens, UniProt P54252, G306R/INS305QQQQQQQQQQQQQQQQQQQQQQQQQQQQQQQQQQQQQQQQQQQQQQQQQQQQQQQQQQQQQQQQ/V212M); experiment: Western-blot mutant ATXN3 level in SCA3 patient fibroblasts; format: cell-based; conditions: 100 nM (compound 4: 50 nM), 2 days
T5 construct: endogenous in cells; host or cells: SCA3 patient fibroblasts (Q74)
Method: (§4) Then the levels of mutant ATXN3 protein (ATXN3-Q74, SEQ ID NO: 2) and wild-type ATXN3 protein (ATXN3-Q27, SEQ ID NO: 7) were determined by Western-blots (FIG. 26). […] Therefore, the compound of the present invention can be used to treat SCA3.

[11] = target: T6, wild-type ATXN3 protein (ATXN3-Q27) (Homo sapiens, UniProt P54252, G306R/INS305QQQQQQQQQQQQQQQQQ/V212M); experiment: Western-blot wild-type ATXN3 level in fibroblasts; format: cell-based; conditions: 100 nM (compound 4: 50 nM), 2 days
T6 construct: endogenous in cells; host or cells: wild-type fibroblasts (Q27) and/or the normal allele in SCA3 patient fibroblasts
Method: as §4

[12] = in vivo; conditions: mouse, ip, 0.5 mg/kg
Method: Experimental method: The compound or control DMSO was diluted with 0.9% NaCl intravenous infusion solution to 0.05 μg/μL. One ip-injection (0.5 mg/kg) was conducted per day. After 14 days of injection, tissue extraction or behavioral experiment were conducted.

[13] = tested on: Q25-GFP; experiment: MST affinity with Q25-GFP
Method: (§5) The affinity of the compound with full-length HTT and LC3B was verified with micro thermophoresis (MST) using Monolith NT.115 instrument from NanoTemper Technologies. The reaction buffer was 20 mM HEPES, pH 7.4, 150 mM NaCl.

[14] = target: T7, MBP-ATXN3-Q68 (Homo sapiens, UniProt P54252, INS305QQQQQQQQQQQQQQQQQQQQQQQQQQQQQQQQQQQQQQQQQQQQQQQQQQQQQQQQQQ); experiment: MST affinity with MBP-ATXN3-Q68
Method: as §5

[15] = target: T7, MBP-ATXN3-Q68; experiment: OI-RD affinity screening with MBP-ATXN3-Q68; format: binding; set-up: His8 with TEV protease cleavage site; made in house; host or cells: Escherichia coli Rosetta(DE3)pLsyS; conditions: OI-RD difference images
Method: as §3

T7 sequence (P54252 with tags, fused parts or gaps isoform P54252-4 with the stated changes): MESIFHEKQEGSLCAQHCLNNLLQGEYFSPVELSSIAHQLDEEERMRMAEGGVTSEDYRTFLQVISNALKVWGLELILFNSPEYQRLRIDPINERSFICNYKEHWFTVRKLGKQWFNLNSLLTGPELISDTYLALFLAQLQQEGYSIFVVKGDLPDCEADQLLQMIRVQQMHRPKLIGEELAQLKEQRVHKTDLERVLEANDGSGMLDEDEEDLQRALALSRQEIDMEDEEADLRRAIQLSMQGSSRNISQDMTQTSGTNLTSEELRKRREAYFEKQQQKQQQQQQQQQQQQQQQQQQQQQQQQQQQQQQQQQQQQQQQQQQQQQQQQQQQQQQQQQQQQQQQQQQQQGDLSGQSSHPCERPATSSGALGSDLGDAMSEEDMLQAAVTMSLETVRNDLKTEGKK
T3 sequence (P42858 other isoform, or with tags, fused parts or gaps with the stated changes): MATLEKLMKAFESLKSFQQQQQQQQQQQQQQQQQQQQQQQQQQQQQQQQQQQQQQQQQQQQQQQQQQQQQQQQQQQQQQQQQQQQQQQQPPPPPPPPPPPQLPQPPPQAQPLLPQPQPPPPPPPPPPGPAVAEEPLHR
T6 sequence (P54252 with tags, fused parts or gaps isoform P54252-1 with the stated changes): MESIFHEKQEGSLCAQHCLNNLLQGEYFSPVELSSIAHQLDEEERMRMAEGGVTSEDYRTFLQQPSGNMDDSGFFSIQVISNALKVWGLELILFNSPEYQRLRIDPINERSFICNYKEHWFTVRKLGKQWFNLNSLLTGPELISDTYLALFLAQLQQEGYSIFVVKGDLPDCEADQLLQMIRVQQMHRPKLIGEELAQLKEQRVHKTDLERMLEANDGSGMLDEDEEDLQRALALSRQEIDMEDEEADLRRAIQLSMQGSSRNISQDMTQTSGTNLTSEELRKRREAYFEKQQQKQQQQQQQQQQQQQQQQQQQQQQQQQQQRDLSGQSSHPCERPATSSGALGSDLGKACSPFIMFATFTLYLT
T5 sequence (P54252 with tags, fused parts or gaps isoform P54252-1 with the stated changes): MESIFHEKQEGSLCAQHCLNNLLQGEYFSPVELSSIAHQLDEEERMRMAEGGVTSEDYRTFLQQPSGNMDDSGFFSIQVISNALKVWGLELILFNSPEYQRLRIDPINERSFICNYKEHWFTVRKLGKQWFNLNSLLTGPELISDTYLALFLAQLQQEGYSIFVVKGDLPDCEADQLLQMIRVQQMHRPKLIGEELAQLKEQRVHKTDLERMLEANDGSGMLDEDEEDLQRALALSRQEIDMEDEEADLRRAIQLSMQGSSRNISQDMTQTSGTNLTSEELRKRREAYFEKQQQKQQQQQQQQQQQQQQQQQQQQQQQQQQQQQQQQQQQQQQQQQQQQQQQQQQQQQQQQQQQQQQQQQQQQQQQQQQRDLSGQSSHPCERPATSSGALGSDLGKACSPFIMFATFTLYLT
T1 sequence (P42858 with tags, fused parts or gaps with the stated changes): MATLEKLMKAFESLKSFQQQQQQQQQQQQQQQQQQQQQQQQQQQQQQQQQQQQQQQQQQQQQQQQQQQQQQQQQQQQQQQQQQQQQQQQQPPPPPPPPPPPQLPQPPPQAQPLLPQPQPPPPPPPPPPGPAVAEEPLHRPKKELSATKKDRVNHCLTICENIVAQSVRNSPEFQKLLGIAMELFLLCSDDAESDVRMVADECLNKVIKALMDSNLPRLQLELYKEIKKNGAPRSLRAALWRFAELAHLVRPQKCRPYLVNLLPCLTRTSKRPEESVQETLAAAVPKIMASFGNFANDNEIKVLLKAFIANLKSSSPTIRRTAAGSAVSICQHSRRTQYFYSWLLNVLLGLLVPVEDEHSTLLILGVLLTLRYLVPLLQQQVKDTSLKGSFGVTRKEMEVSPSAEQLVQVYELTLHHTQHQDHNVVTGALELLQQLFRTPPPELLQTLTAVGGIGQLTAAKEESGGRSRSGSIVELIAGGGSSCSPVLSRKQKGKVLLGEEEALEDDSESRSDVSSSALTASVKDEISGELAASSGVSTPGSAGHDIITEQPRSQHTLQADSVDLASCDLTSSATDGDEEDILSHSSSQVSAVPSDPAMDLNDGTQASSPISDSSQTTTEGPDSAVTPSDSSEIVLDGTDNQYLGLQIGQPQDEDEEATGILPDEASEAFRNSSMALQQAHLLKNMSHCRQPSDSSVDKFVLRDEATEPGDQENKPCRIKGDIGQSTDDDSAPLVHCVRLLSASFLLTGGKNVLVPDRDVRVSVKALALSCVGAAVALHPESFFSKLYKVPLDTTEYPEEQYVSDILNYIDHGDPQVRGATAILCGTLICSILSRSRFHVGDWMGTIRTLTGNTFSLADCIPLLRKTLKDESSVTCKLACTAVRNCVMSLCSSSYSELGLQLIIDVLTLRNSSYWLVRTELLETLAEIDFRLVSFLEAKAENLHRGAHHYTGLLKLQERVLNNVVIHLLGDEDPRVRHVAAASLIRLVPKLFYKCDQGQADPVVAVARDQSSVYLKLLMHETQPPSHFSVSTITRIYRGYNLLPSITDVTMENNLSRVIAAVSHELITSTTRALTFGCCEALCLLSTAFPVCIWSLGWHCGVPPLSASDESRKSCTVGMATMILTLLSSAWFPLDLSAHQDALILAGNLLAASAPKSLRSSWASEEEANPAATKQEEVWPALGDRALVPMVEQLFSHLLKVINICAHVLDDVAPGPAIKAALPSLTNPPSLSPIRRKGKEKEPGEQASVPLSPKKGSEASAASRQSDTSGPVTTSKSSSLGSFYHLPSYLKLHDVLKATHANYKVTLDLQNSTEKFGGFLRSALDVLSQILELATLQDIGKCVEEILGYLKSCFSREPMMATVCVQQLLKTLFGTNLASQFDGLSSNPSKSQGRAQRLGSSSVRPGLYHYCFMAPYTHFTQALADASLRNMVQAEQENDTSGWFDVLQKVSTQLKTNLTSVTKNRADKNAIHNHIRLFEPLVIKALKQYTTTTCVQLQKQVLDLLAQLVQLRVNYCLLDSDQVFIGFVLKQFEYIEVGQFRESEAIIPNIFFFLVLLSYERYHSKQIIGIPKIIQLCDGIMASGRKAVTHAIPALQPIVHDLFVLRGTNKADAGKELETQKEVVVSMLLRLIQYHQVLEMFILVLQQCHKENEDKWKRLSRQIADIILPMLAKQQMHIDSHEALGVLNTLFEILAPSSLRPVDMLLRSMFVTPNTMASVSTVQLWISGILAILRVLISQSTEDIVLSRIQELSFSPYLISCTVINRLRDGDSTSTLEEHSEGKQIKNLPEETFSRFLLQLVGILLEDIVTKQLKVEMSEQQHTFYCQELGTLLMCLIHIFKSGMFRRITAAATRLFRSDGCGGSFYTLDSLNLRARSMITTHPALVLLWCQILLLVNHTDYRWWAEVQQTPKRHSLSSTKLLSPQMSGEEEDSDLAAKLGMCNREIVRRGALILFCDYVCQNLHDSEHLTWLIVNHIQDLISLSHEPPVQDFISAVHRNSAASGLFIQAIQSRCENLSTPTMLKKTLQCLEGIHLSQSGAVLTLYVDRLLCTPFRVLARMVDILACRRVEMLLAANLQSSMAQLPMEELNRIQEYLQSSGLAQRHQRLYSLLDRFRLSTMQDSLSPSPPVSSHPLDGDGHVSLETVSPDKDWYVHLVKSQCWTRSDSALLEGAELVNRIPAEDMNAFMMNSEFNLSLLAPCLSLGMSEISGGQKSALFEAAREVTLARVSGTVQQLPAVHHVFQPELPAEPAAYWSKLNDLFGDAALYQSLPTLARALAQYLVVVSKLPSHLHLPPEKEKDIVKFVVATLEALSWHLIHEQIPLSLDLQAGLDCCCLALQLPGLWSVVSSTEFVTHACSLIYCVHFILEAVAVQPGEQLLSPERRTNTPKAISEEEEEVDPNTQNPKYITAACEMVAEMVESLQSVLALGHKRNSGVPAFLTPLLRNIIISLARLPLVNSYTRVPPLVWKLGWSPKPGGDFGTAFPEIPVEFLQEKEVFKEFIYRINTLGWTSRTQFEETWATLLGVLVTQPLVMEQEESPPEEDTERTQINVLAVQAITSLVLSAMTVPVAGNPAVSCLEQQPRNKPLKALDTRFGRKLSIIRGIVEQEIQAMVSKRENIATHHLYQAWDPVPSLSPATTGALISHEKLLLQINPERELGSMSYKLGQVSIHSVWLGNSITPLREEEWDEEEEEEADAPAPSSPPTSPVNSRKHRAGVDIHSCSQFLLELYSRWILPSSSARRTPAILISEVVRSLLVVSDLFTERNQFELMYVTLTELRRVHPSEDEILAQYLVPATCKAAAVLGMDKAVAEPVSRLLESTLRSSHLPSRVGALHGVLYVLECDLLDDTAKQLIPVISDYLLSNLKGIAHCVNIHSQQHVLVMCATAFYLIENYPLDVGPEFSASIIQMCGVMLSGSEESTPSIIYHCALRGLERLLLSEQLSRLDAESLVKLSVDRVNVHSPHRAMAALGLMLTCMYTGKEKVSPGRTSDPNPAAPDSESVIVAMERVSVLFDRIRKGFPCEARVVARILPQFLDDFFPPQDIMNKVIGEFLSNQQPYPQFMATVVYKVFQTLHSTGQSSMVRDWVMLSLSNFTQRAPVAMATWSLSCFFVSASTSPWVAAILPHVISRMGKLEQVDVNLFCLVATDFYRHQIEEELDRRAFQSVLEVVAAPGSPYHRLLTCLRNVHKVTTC
T4 sequence (P54252 with tags, fused parts or gaps isoform P54252-4 with the stated changes): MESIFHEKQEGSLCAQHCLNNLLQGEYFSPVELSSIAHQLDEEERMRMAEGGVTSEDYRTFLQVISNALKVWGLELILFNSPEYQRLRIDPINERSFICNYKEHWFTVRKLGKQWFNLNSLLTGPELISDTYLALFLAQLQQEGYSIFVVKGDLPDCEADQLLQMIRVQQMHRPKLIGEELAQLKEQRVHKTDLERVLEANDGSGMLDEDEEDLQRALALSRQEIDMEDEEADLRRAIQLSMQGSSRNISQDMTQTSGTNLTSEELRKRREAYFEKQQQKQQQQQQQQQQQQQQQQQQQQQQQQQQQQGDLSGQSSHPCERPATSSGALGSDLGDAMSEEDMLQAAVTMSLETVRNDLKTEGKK

For `O=C1Nc2ccc(I)cc2/C1=C/c1cc(Br)c(O)c(Br)c1` [compound 1, GW5074], the Kd [1] was 3.46 µM, the Kd [2] was 4.76 µM and the “binding between HTTexon1-Q72-MBP and LC3B” value [3] was “could enhance the binding”. For the same compound, the Kd [4] was 0.18 µM, the Koff [4] was 0.000252 s⁻¹ and the Kon [4] was 8.37e-05 min/nM. It also gave a Kd [5] of 1.92 µM, a Koff [5] of 0.000338 s⁻¹ and a Kon [5] of 1.06e-05 min/nM. The “binding to GFP” value [6] was “did not bind”, the “binding affinity to proteins with 38 or more glutamine repeats” value [7] was “showed certain binding affinity” and the “level of proteins containing expanded polyglutamine in cells (polyQ-GFP)” value [8] was “can selectively reduce the level”. The “binding to MBP-ATXN3-Q28” value [9] was “did not bind”, the “mutant ATXN3 protein level” value [10] was “A decrease in mutant ATXN3 protein level was observed” and the “wild-type ATXN3 protein level” value [11] was “no decrease in wild-type ATXN3 protein level was observed”. The concentration at 2 h [12] was 81 ng/g, the “binding affinity to Q25-GFP” value [13] was “no binding affinity” and the Kd [14] was 6.32 µM. The “binding to MBP-ATXN3-Q68” value [15] was “binded”.
